Test results published in patent US20240294467A1, “USP9X Inhibitors” (ProDeg, LLC, priority 2021, published 2024).
pIC50: −log10 of the molar value.

Columns and labels:
[1] = tested on: BT-549; assay: ONCOLINES Profiler proliferation; format: cell-based, human
From the text: (§1) The compounds were profiled on an ONCOLINES™ Profiler (Netherlands Translational Research Center) assayed with 66 cancer cell lines to determine if they were capable of inhibiting the proliferation of these cancer cells.
To further evaluate potency of the compounds, they were compared with the USP9X inhibitor WP 1130 by screening both the compounds and WP1130 on a 66-cancer cell line panel ONCOLINES™ Profiler.

[2] = tested on: BT-549 cancer cells; assay: WST-1 cell viability assay; format: cell-based, human; conditions: BT-549 cells
Description: Compound Compound 9A was tested for the ability to inhibit the proliferation of Mia-Paca-2 pancreatic cancer cells. Mia-Paca-2 and MDA-MB-231 cells were seeded into the wells of a 96 well tissue culture plate in complete medium (10% fetal calf serum) and incubated overnight at 37° C./5% CO2). The medium was exchanged for fresh medium containing varying concentrations of Compound 9A and the plate was incubated for 72 hours at 37° C./5% CO2. The viability of cells at the end of this incubation was assessed with the WST-1 reagent. To 10 ml of warm (37° C.) complete medium, 1 ml WST-1 reagent was added. The medium from the wells of the plate with the Mia-Paca-2 cells was removed and replaced with 100 μL of the WST-1 reagent in complete medium. The plate was incubated at 37 37° C./5% CO2. At timed intervals the absorbance at 450 nm was determined for each well in a UVNis plate reader. For each well the slope of the plot of the absorbance 450 nm vs time was determined. The readings were normalized to that of the wells for the untreated control and a dose-response curve was plotted. A fit to the data was made from a four parameter, variable slope program (GraphPad Prism) and the IC50 was determined.
The same procedures were also applied to the compounds Compound 7A, Compound 6A, and Compound 8A to test their inhibitory activities against RKO colon, Mia-Paca-2 pancreatic and BT-549 cancer cells.

[3] = tested on: A375; assay: ONCOLINES Profiler proliferation; format: cell-based; conditions: Homo sapiens, A-375; A375, malignant melanoma
From the text: as §1

[4] = tested on: A-204; assay: ONCOLINES Profiler proliferation; format: cell-based; conditions: Homo sapiens, A204; A-204, rhabdomyosarcoma
From the text: as §1

[5] = tested on: NCI-H460; assay: ONCOLINES Profiler proliferation; format: cell-based; conditions: Homo sapiens; NCI-H460, large cell lung carcinoma
From the text: as §1

[6] = tested on: SUP-T1; assay: ONCOLINES Profiler proliferation; format: cell-based; conditions: Homo sapiens; SUP-T1, T-cell lymphoblastic lymphoma
From the text: as §1

[7] = tested on: AN3 CA; assay: ONCOLINES Profiler proliferation; format: cell-based; conditions: Homo sapiens, endometrium adenocarcinoma
From the text: as §1

For `CN1CCOc2ccc(cc2)C(=O)NCc2ccc(F)c(c2)C(=O)N[C@@H](CC(C)(C)C)C(=O)Nc2ccc(cc2)CCN(C)C(=O)CC(C)(C)CC1=O` [Compound 7A], the “IC50 Ratio WP1130/Compound 7A” value ([1]; BT-549) was 27.0, the pIC50 ([1]; BT-549, breast ductal carcinoma) was 6.70 and the pIC50 ([1]; Homo sapiens, BT-549, BT-549, breast ductal carcinoma) was 6.70. The “cell viability” value [2] was “significant decreases”, the pIC50 [3] was 5.70 and the pIC50 [4] was 5.87. For the same compound, the pIC50 [5] was 5.68, the pIC50 [6] was 5.37 and the pIC50 [7] was 6.18.
